# Data reported in PubChem BioAssay (NCI).
#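 96-well plates; 48 h exposure; 5 concentrations. Endpoints by linear interpolation between flanking doses. Not reached: highest tested concentration assigned. The concentration for 50% growth inhibition is given as GI50. TGI marks complete inhibition of growth.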
# Legend:
# Assay in all cases: growth of human tumour cells (NCI), 48 h
# DU-145 prostate = tested on: DU-145 prostate
# UACC-257 melanoma = tested on: UACC-257 melanoma
# HCT-15 colon = tested on: HCT-15 colon
# RXF 393 renal = tested on: RXF 393 renal
# A498 renal = tested on: A498 renal
# NCI-H522 lung = tested on: NCI-H522 lung
# TK-10 renal = tested on: TK-10 renal
# MALME-3M melanoma = tested on: MALME-3M melanoma
# UACC-62 melanoma = tested on: UACC-62 melanoma
# PC-3 prostate = tested on: PC-3 prostate
Structure (SMILES),GI50 (DU-145 prostate),TGI (DU-145 prostate),GI50 (UACC-257 melanoma),TGI (UACC-257 melanoma),GI50 (HCT-15 colon),TGI (HCT-15 colon),GI50 (RXF 393 renal),TGI (RXF 393 renal),GI50 (A498 renal),TGI (A498 renal),GI50 (NCI-H522 lung),TGI (NCI-H522 lung),GI50 (TK-10 renal),TGI (TK-10 renal),GI50 (MALME-3M melanoma),TGI (MALME-3M melanoma),GI50 (UACC-62 melanoma),TGI (UACC-62 melanoma),GI50 (PC-3 prostate),TGI (PC-3 prostate)
COc1ccc(-c2cc3c(nn2)-c2ccccc2C3=O)cc1,> 100 µM,> 100 µM,> 100 µM,> 100 µM,> 100000 nM,> 100 µM,> 100000 nM,> 100 µM,> 100000 nM,> 100 µM,> 100000 nM,> 100 µM,> 100 µM,> 100 µM,> 100000 nM,> 100 µM,> 100000 nM,> 100 µM,> 100000 nM,> 100 µM
CC(=O)[O][Hg][c]1c(C)c(C)c(C)c(C)c1C,8.79 µM,22.8 µM,1.73 µM,3.45 µM,1380 nM,2.93 µM,712 nM,1.93 µM,2680 nM,5.4 µM,1410 nM,3.02 µM,2.03 µM,3.72 µM,1240 nM,2.62 µM,856 nM,2.95 µM,2000 nM,5.68 µM
COc1cc2c(/C=C3/C(=O)Nc4cccc(Cl)c43)c(Cl)n(Cc3ccccc3)c2cc1C,11.2 µM,> 100 µM,10.4 µM,> 78.8 µM,3120 nM,31.3 µM,5050 nM,> 29 µM,528 nM,9.03 µM,4460 nM,> 82.2 µM,10.4 µM,> 76.2 µM,14200 nM,41.4 µM,1670 nM,24.1 µM,4290 nM,> 38 µM
COc1cc([C@@H]2c3cc4c(cc3C(O[C@@H]3O[C@@H]5CO[C@@H](c6cccs6)OC5[C@H](O)[C@H]3O)C3COC(=O)[C@@H]32)OCO4)cc(OC)c1O (stereo not given in full),0.0459 µM,0.369 µM,0.154 µM,2.11 µM,499 nM,19.4 µM,105 nM,0.534 µM,63.5 nM,0.551 µM,36.9 nM,0.396 µM,0.118 µM,0.799 µM,76.8 nM,1.02 µM,40.9 nM,1.1 µM,510 nM,32.9 µM
COc1ccc(-n2cc(-c3cc(OC)c(OC)c(OC)c3)[nH]c2=S)cc1OC,> 100 µM,> 100 µM,> 100 µM,> 100 µM,> 100000 nM,> 100 µM,> 100000 nM,> 100 µM,> 100000 nM,> 100 µM,> 100000 nM,> 100 µM,> 100 µM,> 100 µM,> 100000 nM,> 100 µM,> 100000 nM,> 100 µM,> 100000 nM,> 100 µM
O=C(C[C@@H](C(=O)NCc1cccc(C(F)(F)F)c1)N1C(=O)[C@@H](N2C(=O)OC[C@@H]2c2ccccc2)[C@H]1/C=C/c1ccccc1)NC1CCN(Cc2ccccc2)CC1,7.72 µM,> 100 µM,17.2 µM,33.8 µM,10900 nM,35.2 µM,1870 nM,4.88 µM,2190 nM,11.9 µM,2810 nM,13.2 µM,10.2 µM,23.4 µM,2780 nM,7.39 µM,3340 nM,13.8 µM,6060 nM,20.8 µM
C=C1C(=O)O[C@H]2[C@H]1CC/C(COC(=O)/C=C\C(=O)NCc1ccc(Cn3c(=O)sn(-c4ccc(C#N)cc4)c3=O)cc1)=C\CC[C@@]1(C)O[C@@H]21,0.725 µM,1.4 µM,0.812 µM,1.66 µM,505 nM,1.95 µM,576 nM,1.22 µM,769 nM,1.55 µM,714 nM,1.65 µM,0.888 µM,1.61 µM,830 nM,1.58 µM,722 nM,1.45 µM,611 nM,1.44 µM
CNC1C(=O)C(C)C(O)(C(CC(C)C(O)/C=C/C=C/CNC(=O)C(C)(C)C(O)\C(C)=C/C=C\C=C\Cc2cnc(C)o2)OC)C12C(=O)OC2COC (stereo not given) (tested in a mixture with another compound),,> 100 µM,,> 100 µM,,> 63.1 µM,,92.3 µM,,> 79.3 µM,,21.2 µM,,> 100 µM,,> 87.9 µM,,49.9 µM,,63.5 µM
Cn1cc(C2=C(c3cn(C)c4c(N)cccc34)C(=O)NC2=O)c2ccccc21,2.48 µM,> 25 µM,4.76 µM,> 25 µM,743 nM,> 25 µM,1030 nM,6.85 µM,895 nM,4.29 µM,996 nM,> 15 µM,4.28 µM,18.3 µM,9530 nM,> 25 µM,2480 nM,18.1 µM,1370 nM,> 25 µM
